According to patent publication US8669251B2, “8-fluorophthalazin-1(2H)-one compounds” (Genentech, Inc., priority 2011, dated 2014):

Test system: production of CD69 by B lymphocytes in human whole blood
Experiment: CD69 Whole Blood Assay (CD69 Hu Blood FACS)
Format: cell-based
Details: human whole blood activated with goat F(ab')2 anti-human IgM, 20 hours; CD69 on CD20 positive cells by FACS; Table 1
From the text: A CD69 Whole Blood Assay can be conducted on Formula I compounds to determine the ability of compounds to inhibit the production of CD69 by B lymphocytes in human whole blood activated by crosslinking surface IgM with goat F(ab′)2 anti-human IgM (Example 907). CD69 is a type II C-type lectin involved in lymphocyte migration and cytokine secretion. CD69 expression represents one of the earliest available indicators of leukocyte activation and its rapid induction occurs through transcriptional activation (Vazquez et al (2009) Jour. of Immunology Published Oct. 19, 2009, doi:10.4049/jimmunol.0900839). Concentration-dependent inhibition of antigen receptor stimulation by selective Btk inhibitors induces cell surface expression of the lymphocyte activation marker CD69 (Honigberg et al (2010) Proc. Natl. Acad. Sci. 107(29):13075-13080). Thus, CD69 inhibition by selective Btk inhibitors may be correlated with therapeutic efficacy of certain B-cell disorders.
Human blood is obtained from healthy volunteers, with the following restrictions: 1 week drug-free, non-smokers. Blood (approximately 20 mls to test 8 compounds) is collected by venipuncture into Vacutainer® (Becton, Dickinson and Co.) tubes with sodium heparin.
Solutions of Formula I and II compounds at 10 mM in DMSO are diluted 1:10 in 100% DMSO, then are diluted by three-fold serial dilutions in 100% DMSO for a ten point dose-response curve. The compounds are further diluted 1:10 in PBS and then an aliquot of 5.5 μl of each compound is added in duplicate to a 2 ml 96-well plate; 5.5 μl of 10% DMSO in PBS is added as control and no-stimulus wells. Human whole blood —HWB (100 μl) is added to each well. After mixing the plates are incubated at 37° C., 5% CO2, 100% humidity for 30 minutes. Goat F(ab′)2 anti-human IgM (10 μl of a 500 μg/ml solution, 50 μg/ml final) is added to each well (except the no-stimulus wells) with mixing and the plates are incubated for an additional 20 hours. At the end of the 20 hour incubation, samples are incubated with fluorescent labeled antibodies for 30 minutes, at 37° C., 5% CO2, 100% humidity. Include induced control, unstained and single stains for compensation adjustments and initial voltage settings. Samples are then lysed with PharM Lyse™ (BD Biosciences Pharmingen) according to the manufacturer's instructions. Samples are then transferred to a 96 well plate suitable to be run on the BD Biosciences HTS 96 well system on the LSRII machine. Data acquired and Mean Fluorescence Intensity values were obtained using BD Biosciences DIVA Software. Results are initially analyzed by FACS analysis software (Flow Jo). […] The inhibitory concentration (IC50, IC70, IC90) values are calculated by Prism version 5, using a nonlinear regression curve fit.

Question: C[C@@H]1CN(c2ccc(Nc3cc(-c4ccnc(-n5ncc6cc(C(C)(C)C)cc(F)c6c5=O)c4CO)cn(C)c3=O)nc2)[C@@H](C)CN1C1COC1 [Compound 110, 6-tert-butyl-2-(4-(5-(5-((2S,5R)-2,5-dimethyl-4-(oxetan-3-yl)piperazin-1-yl)pyridin-2-ylamino)-1-methyl-6-oxo-1,6-dihydropyridin-3-yl)-3-(hydroxymethyl)pyridin-2-yl)-8-fluorophthalazin-1(2H)-one] was tested. Which CD69 Hu Blood FACS (IC70) did it give?
Answer: 5.9 nM

Question: Which CD69 Hu Blood FACS (IC70) does the source give for CC[C@H]1CN(C2COC2)CCN1c1ccc(Nc2cc(-c3ccnc(-n4ncc5cc(C(C)(C)C)cc(F)c5c4=O)c3CO)cn(C)c2=O)nc1 [Compound 112, (S)-6-tert-butyl-2-(4-(5-(5-(2-ethyl-4-(oxetan-3-yl)piperazin-1-yl)pyridin-2-ylamino)-1-methyl-6-oxo-1,6-dihydropyridin-3-yl)-3-(hydroxymethyl)pyridin-2-yl)-8-fluorophthalazin-1(2H)-one] here?
Answer: 32.9 nM

Same assay, conditions: human whole blood activated with goat F(ab')2 anti-human IgM, 20 hours; CD69 on CD20 positive cells by FACS; Table 2

Question: CCc1cc(Nc2cc(-c3ccnc(-n4ncc5cc(C(C)(C)C)cc(F)c5c4=O)c3CO)cn(C)c2=O)no1 [Compound 158, 6-tert-butyl-2-[4-[5-[(5-ethylisoxazol-3-yl)amino]-1-methyl-6-oxo-3-pyridyl]-3-(hydroxymethyl)-2-pyridyl]-8-fluoro-phthalazin-1-one] was tested. Which CD69 Hu Blood FACS (IC70) did it give?
Answer: 66.7 nM

Question: Which CD69 Hu Blood FACS (IC70) does the source give for C[C@H]1COCCN1C(=O)c1ccc(Nc2cc(-c3ccnc(-n4ncc5cc(C(C)(C)C)cc(F)c5c4=O)c3CO)cn(C)c2=O)nc1 [Compound 136, 6-tert-butyl-8-fluoro-2-[3-(hydroxymethyl)-4-[1-methyl-5-[[5-[(3S)-3-methylmorpholine-4-carbonyl]-2-pyridyl]amino]-6-oxo-3-pyridyl]-2-pyridyl]phthalazin-1-one] here?
Answer: 14.5 nM

Question: For Cn1cc(-c2ccnc(-n3ncc4cc(C(C)(C)C)cc(F)c4c3=O)c2CO)cc(Nc2cc3n(n2)CCN(CC(F)(F)F)C3)c1=O [Compound 134, 6-tert-butyl-8-fluoro-2-[3-(hydroxymethyl)-4-[1-methyl-6-oxo-5-[[5-(2,2,2-trifluoroethyl)-6,7-dihydro-4H-pyrazolo[1,5-a]pyrazin-2-yl]amino]-3-pyridyl]-2-pyridyl]phthalazin-1-one], which CD69 Hu Blood FACS (IC70) is on record?
Answer: 21.6 nM

Question: Which CD69 Hu Blood FACS (IC70) does the source give for Cn1cc(-c2ccnc(-n3ncc4cc(C(C)(C)C)cc(F)c4c3=O)c2CO)cc(Nc2ccc(N3CC(O)C3)cn2)c1=O [Compound 147, 6-tert-butyl-8-fluoro-2-[4-[5-[[5-(3-hydroxyazetidin-1-yl)-2-pyridyl]amino]-1-methyl-6-oxo-3-pyridyl]-3-(hydroxymethyl)-2-pyridyl]phthalazin-1-one] here?
Answer: 33.3 nM

Question: For Cc1cc(Nc2cc(-c3ccnc(-n4ncc5cc(C(C)(C)C)cc(F)c5c4=O)c3CO)cn(C)c2=O)no1 [Compound 129, 6-tert-butyl-8-fluoro-2-[3-(hydroxymethyl)-4-[1-methyl-5-[(5-methylisoxazol-3-yl)amino]-6-oxo-3-pyridyl]-2-pyridyl]phthalazin-1-one], which CD69 Hu Blood FACS (IC70) is on record?
Answer: 48.8 nM

Question: Which CD69 Hu Blood FACS (IC70) does the source give for CC(C)C(=O)N1CCn2nc(Nc3cc(-c4ccnc(-n5ncc6cc(C(C)(C)C)cc(F)c6c5=O)c4CO)cn(C)c3=O)cc2C1 [Compound 148, 6-tert-butyl-8-fluoro-2-[3-(hydroxymethyl)-4-[1-methyl-5-[[5-(2-methylpropanoyl)-6,7-dihydro-4H-pyrazolo[1,5-a]pyrazin-2-yl]amino]-6-oxo-3-pyridyl]-2-pyridyl]phthalazin-1-one] here?
Answer: 13.9 nM

Question: With Cc1cc(Nc2cc(-c3ccnc(-n4ncc5cc(C(C)(C)C)cc(F)c5c4=O)c3CO)cn(C)c2=O)nn1C [Compound 119, 6-tert-butyl-2-[4-[5-[(1,5-dimethylpyrazol-3-yl)amino]-1-methyl-6-oxo-3-pyridyl]-3-(hydroxymethyl)-2-pyridyl]-8-fluoro-phthalazin-1-one] as the compound, how does the CD69 Hu Blood FACS (IC70) read?
Answer: 24.7 nM

Question: Cc1cc(Nc2cc(-c3ccnc(-n4ncc5cc(C(C)(C)C)cc(F)c5c4=O)c3CO)cn(C)c2=O)nn1CC(F)F [Compound 145, 6-tert-butyl-2-[4-[5-[[1-(2,2-difluoroethyl)-5-methyl-pyrazol-3-yl]amino]-1-methyl-6-oxo-3-pyridyl]-3-(hydroxymethyl)-2-pyridyl]-8-fluoro-phthalazin-1-one] was tested. Which CD69 Hu Blood FACS (IC70) did it give?
Answer: 163 nM

Question: Which CD69 Hu Blood FACS (IC70) does the source give for COCCN1CCn2nc(Nc3cc(-c4ccnc(-n5ncc6cc(C(C)(C)C)cc(F)c6c5=O)c4CO)cn(C)c3=O)cc2C1 [Compound 133, 6-tert-butyl-8-fluoro-2-[3-(hydroxymethyl)-4-[5-[[5-(2-methoxyethyl)-6,7-dihydro-4H-pyrazolo[1,5-a]pyrazin-2-yl]amino]-1-methyl-6-oxo-3-pyridyl]-2-pyridyl]phthalazin-1-one] here?
Answer: 14.5 nM

Question: How did the CD69 Hu Blood FACS (IC70) turn out when COCc1cc(Nc2cc(-c3ccnc(-n4ncc5cc(C(C)(C)C)cc(F)c5c4=O)c3CO)cn(C)c2=O)nn1C [Compound 143, 6-tert-butyl-8-fluoro-2-[3-(hydroxymethyl)-4-[5-[[5-(methoxymethyl)-1-methyl-pyrazol-3-yl]amino]-1-methyl-6-oxo-3-pyridyl]-2-pyridyl]phthalazin-1-one] was run?
Answer: 13.1 nM

Question: Which CD69 Hu Blood FACS (IC70) does the source give for Cn1nc(Nc2cc(-c3ccnc(-n4ncc5cc(C(C)(C)C)cc(F)c5c4=O)c3CO)cn(C)c2=O)cc1C1CC1 [Compound 126, 6-tert-butyl-2-[4-[5-[(5-cyclopropyl-1-methyl-pyrazol-3-yl)amino]-1-methyl-6-oxo-3-pyridyl]-3-(hydroxymethyl)-2-pyridyl]-8-fluoro-phthalazin-1-one] here?
Answer: 44.5 nM

Question: CN1CCn2nc(Nc3cc(-c4ccnc(-n5ncc6cc(C(C)(C)C)cc(F)c6c5=O)c4CO)cn(C)c3=O)cc2C1 [Compound 128, 6-tert-butyl-8-fluoro-2-[3-(hydroxymethyl)-4-[1-methyl-5-[(5-methyl-6,7-dihydro-4H-pyrazolo[1,5-a]pyrazin-2-yl)amino]-6-oxo-3-pyridyl]-2-pyridyl]phthalazin-1-one] was tested. Which CD69 Hu Blood FACS (IC70) did it give?
Answer: 27.2 nM

Question: Which CD69 Hu Blood FACS (IC70) does the source give for CCn1ccc(Nc2cc(-c3ccnc(-n4ncc5cc(C(C)(C)C)cc(F)c5c4=O)c3CO)cn(C)c2=O)n1 [Compound 142, 6-tert-butyl-2-[4-[5-[(1-ethylpyrazol-3-yl)amino]-1-methyl-6-oxo-3-pyridyl]-3-(hydroxymethyl)-2-pyridyl]-8-fluoro-phthalazin-1-one] here?
Answer: 168 nM

Question: CCc1cc(Nc2cc(-c3ccnc(-n4ncc5cc(C(C)(C)C)cc(F)c5c4=O)c3CO)cn(C)c2=O)nn1C [Compound 122, 6-tert-butyl-2-[4-[5-[(5-ethyl-1-methyl-pyrazol-3-yl)amino]-1-methyl-6-oxo-3-pyridyl]-3-(hydroxymethyl)-2-pyridyl]-8-fluoro-phthalazin-1-one] was tested. Which CD69 Hu Blood FACS (IC70) did it give?
Answer: 37.5 nM

Question: Which CD69 Hu Blood FACS (IC70) does the source give for Cn1cc(-c2ccnc(-n3ncc4cc(C(C)(C)C)cc(F)c4c3=O)c2CO)cc(Nc2cc3n(n2)CC(C)(C)OC3)c1=O [Compound 139, 6-tert-butyl-2-[4-[5-[(6,6-dimethyl-4,7-dihydropyrazolo[5,1-c][1,4]oxazin-2-yl)amino]-1-methyl-6-oxo-3-pyridyl]-3-(hydroxymethyl)-2-pyridyl]-8-fluoro-phthalazin-1-one] here?
Answer: 61.6 nM

Question: How did the CD69 Hu Blood FACS (IC70) turn out when Cn1cc(-c2ccnc(-n3ncc4cc(C(C)(C)C)cc(F)c4c3=O)c2CO)cc(Nc2cc3n(n2)CCOC3)c1=O [Compound 131, 6-tert-butyl-2-[4-[5-(6,7-dihydro-4H-pyrazolo[5,1-c][1,4]oxazin-2-ylamino)-1-methyl-6-oxo-3-pyridyl]-3-(hydroxymethyl)-2-pyridyl]-8-fluoro-phthalazin-1-one] was run?
Answer: 17.1 nM

Question: With C[C@H]1CN(C2COC2)CCN1c1ccc(Nc2cc(-c3ccnc(-n4ncc5cc(C(C)(C)C)cc(F)c5c4=O)c3CO)nn(C)c2=O)nc1 [Compound 117, 6-tert-butyl-8-fluoro-2-[3-(hydroxymethyl)-4-[1-methyl-5-[[5-[(2S)-2-methyl-4-(oxetan-3-yl)piperazin-1-yl]-2-pyridyl]amino]-6-oxo-pyridazin-3-yl]-2-pyridyl]phthalazin-1-one] as the compound, how does the CD69 Hu Blood FACS (IC70) read?
Answer: 16.5 nM

Question: How did the CD69 Hu Blood FACS (IC70) turn out when CCn1cc(Nc2nc(-c3ccnc(-n4ncc5cc(C(C)(C)C)cc(F)c5c4=O)c3CO)cn(C)c2=O)cn1 [Compound 123, 6-tert-butyl-2-[4-[6-[(1-ethylpyrazol-4-yl)amino]-4-methyl-5-oxo-pyrazin-2-yl]-3-(hydroxymethyl)-2-pyridyl]-8-fluoro-phthalazin-1-one] was run?
Answer: 156 nM
